From article PMC3995681, “Structural, Kinetic and Proteomic Characterization of Acetyl Phosphate-Dependent Bacterial Protein Acetylation” (PLoS ONE, 2014) come the findings set out here.

The target of experiment [1] is T1, GapA (glyceraldehyde-3-phosphate dehydrogenase) (Escherichia coli, UniProt P0A9B2).
T1 construct: full ORF, N-terminal His6 tag plus TDPALRA spacer (ASKA clone, pCA24N), expressed in E. coli BL21(DE3); tetramer
Description: X-ray crystallography, crystal soak ( […] sec). It counts as binding. As to conditions: covalent; acetylation of K46, K249, K257, K116; pH 7.5.

Experiment [2] has as its target T2, LpdA (dihydrolipoyl dehydrogenase) (Escherichia coli, UniProt P0A9P0).
T2 construct: full ORF, N-terminal His6 tag plus TDPALRA spacer (ASKA clone, pCA24N), expressed in E. coli BL21(DE3)
Description: in vitro acetylation, anti-acetyllysine Western blot and MS1 Filtering. It counts as biochemical. The note with it: covalent; non-enzymatic lysine acetylation, non-saturating; 5-20 mM acP, 10 mM MgCl2, pH 7.3, 37°C.

For experiment [3], the target named is T3, TpiA (triosephosphate isomerase) (Escherichia coli, UniProt P0A858).
T3 construct: full ORF, N-terminal His6 tag plus TDPALRA spacer (ASKA clone, pCA24N), expressed in E. coli BL21(DE3)
T3 sequence (P0A858 whole entry): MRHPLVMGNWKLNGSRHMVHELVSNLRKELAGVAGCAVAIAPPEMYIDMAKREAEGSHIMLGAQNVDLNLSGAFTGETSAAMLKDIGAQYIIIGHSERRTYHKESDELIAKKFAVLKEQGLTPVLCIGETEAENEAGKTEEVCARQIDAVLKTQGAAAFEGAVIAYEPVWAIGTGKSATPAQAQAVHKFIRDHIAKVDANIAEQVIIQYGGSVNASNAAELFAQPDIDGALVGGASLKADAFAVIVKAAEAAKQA
As to the kind of experiment: X-ray crystallography, crystal soak ( […] sec). It counts as binding. As to conditions: pH 6.5; active site near K11; non-covalent (K11 not acetylated).

Experiment [4] deals with T4, RNAP sigma70 holoenzyme (Escherichia coli, UniProt P00579+P0A7Z4+P0A8V2).
T4 construct: gene rpoA; with DNA-directed RNA polymerase subunit beta'; DNA-directed RNA polymerase subunit omega
T4 sequence (P0A7Z4 whole entry): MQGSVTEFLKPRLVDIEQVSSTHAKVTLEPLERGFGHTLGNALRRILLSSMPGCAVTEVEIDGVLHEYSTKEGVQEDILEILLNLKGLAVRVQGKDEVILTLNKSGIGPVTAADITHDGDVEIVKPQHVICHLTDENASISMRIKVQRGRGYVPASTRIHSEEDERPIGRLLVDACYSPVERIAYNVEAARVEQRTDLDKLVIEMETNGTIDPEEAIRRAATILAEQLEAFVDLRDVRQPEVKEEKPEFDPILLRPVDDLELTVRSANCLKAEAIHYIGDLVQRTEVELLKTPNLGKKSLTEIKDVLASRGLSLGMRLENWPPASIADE
T4 sequence (P0A8V2 whole entry): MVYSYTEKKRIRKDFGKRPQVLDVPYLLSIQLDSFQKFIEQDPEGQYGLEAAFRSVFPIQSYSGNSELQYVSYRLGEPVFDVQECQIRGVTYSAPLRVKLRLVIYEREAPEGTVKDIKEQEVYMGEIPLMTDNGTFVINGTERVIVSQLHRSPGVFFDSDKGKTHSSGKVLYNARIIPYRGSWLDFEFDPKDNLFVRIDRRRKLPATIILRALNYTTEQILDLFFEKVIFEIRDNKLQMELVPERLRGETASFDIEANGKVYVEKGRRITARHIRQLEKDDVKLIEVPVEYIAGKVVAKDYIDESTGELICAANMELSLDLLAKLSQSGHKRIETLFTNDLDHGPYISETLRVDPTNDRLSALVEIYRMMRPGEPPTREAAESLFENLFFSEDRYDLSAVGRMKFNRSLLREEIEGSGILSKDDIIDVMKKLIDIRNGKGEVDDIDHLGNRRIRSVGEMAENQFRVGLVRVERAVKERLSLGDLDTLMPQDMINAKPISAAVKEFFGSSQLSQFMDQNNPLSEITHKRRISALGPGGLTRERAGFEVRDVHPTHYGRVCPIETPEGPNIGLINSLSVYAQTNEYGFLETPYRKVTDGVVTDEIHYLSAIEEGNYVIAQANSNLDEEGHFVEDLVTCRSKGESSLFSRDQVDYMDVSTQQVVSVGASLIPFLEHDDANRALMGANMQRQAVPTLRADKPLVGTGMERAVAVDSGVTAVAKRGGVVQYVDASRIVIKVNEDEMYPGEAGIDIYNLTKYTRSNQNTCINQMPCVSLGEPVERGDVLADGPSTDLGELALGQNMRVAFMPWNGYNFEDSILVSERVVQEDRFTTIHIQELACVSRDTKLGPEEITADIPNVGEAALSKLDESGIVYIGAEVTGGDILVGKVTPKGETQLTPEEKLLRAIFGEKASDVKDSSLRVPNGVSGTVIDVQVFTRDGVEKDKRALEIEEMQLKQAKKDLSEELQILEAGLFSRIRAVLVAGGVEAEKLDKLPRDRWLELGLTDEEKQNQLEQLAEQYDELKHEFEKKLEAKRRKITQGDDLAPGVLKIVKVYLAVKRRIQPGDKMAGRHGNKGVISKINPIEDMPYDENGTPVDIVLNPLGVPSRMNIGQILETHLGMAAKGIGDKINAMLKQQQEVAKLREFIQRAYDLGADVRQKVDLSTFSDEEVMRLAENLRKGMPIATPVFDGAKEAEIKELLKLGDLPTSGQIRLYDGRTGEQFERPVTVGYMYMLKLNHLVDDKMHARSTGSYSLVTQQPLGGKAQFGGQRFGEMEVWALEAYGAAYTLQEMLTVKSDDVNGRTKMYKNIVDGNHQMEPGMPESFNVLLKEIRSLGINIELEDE
T4 sequence (P00579 whole entry): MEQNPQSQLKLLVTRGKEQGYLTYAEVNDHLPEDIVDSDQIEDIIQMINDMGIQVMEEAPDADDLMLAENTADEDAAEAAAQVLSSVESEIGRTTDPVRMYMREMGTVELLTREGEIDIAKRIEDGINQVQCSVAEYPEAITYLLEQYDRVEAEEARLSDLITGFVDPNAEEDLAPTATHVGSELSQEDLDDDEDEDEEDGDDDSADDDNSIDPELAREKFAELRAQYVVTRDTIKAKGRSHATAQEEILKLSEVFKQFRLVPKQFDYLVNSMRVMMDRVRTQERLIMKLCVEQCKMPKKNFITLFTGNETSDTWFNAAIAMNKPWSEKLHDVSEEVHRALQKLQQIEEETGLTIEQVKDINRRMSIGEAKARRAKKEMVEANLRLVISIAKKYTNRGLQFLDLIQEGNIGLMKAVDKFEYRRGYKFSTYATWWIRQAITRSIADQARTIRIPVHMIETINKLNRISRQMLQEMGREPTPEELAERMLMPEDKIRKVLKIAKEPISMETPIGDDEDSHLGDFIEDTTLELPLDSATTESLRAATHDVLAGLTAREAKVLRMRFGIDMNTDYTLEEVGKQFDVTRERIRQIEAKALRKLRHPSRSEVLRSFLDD
T4 sequence (P0A8T7 whole entry partner): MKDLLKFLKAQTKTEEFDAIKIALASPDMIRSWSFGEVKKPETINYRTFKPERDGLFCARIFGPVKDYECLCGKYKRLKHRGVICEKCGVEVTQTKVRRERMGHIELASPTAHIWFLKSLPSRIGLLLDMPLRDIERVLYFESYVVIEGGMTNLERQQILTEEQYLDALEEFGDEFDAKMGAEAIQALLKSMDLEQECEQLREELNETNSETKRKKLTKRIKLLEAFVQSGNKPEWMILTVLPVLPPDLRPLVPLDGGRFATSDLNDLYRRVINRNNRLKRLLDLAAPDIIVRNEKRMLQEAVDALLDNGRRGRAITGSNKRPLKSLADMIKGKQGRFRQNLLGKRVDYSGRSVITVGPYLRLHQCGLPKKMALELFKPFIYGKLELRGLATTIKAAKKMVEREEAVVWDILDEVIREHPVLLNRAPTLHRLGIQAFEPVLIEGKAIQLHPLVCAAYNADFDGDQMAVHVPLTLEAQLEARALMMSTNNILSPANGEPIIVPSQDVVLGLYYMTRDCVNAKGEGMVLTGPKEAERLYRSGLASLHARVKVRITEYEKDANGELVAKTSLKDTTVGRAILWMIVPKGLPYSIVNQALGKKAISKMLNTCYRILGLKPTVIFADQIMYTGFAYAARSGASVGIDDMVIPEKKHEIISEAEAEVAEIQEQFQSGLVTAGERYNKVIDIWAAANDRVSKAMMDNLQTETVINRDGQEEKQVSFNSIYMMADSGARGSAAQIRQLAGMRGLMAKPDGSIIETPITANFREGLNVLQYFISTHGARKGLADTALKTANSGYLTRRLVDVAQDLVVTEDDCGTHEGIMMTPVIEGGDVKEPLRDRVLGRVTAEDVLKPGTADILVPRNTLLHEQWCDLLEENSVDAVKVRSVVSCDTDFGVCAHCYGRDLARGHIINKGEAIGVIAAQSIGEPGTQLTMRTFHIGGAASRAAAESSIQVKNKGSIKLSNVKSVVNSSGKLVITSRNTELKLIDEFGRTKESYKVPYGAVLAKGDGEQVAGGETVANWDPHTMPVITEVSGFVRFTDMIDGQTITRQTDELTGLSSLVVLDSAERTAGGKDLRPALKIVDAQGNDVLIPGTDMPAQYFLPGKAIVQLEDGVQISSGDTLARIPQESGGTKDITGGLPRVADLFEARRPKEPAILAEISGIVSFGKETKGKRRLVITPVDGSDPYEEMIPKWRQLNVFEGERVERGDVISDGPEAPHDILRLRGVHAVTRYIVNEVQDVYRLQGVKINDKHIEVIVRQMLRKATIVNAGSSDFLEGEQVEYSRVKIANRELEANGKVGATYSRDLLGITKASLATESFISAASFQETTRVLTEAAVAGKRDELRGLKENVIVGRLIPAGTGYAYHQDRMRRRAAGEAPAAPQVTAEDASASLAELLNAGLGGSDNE
T4 sequence (P0A800 2-91 partner): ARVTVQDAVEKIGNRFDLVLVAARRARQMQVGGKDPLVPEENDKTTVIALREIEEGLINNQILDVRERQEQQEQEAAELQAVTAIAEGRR
As to the kind of experiment: in vitro acetylation, anti-acetyllysine Western blot and MS1 Filtering. As to conditions: covalent; acetylation of RpoA K297, RpoB K1065, RpoD K493 and K593; 10 mM acP, 30 min, 10 mM MgCl2. It counts as biochemical. (In western blotting, separated proteins are transferred to a membrane and probed.)

In experiment [5] the target is T1, GapA (glyceraldehyde-3-phosphate dehydrogenase). Description: X-ray crystallography. As to conditions: NAD+-binding site, part of the molecules in the asymmetric unit.

T1 sequence (P0A9B2 whole entry): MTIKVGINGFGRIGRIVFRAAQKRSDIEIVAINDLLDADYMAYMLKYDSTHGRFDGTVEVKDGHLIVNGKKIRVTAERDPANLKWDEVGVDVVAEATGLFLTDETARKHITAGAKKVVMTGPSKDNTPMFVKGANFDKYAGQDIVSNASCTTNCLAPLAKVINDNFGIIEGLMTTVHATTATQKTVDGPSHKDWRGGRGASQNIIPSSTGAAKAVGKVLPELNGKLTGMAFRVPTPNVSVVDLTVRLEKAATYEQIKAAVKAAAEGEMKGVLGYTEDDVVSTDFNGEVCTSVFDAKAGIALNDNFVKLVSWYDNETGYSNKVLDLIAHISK
T2 sequence (P0A9P0 whole entry): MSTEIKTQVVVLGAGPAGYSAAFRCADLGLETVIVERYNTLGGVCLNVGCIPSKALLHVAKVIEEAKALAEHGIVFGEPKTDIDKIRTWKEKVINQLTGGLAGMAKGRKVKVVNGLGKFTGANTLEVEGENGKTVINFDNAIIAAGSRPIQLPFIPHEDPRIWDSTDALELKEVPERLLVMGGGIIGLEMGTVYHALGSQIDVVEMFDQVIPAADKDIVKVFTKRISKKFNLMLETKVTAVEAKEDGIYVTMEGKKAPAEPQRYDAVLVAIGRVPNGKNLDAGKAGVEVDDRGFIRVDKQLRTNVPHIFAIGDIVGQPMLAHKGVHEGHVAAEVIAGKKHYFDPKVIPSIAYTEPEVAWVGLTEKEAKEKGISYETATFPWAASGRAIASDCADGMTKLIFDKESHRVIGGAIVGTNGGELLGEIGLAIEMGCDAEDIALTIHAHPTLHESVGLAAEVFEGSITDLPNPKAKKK

Turning to `CC(=O)OP(=O)(O)O` [acP], the “X-ray crystallography, crystal soak (<30 sec)” value in experiment [1] is “acP-dependent acetylation had already occurred on four residues (i.e., K46, K249, K257, and K116)”; in experiment [3], “The structures showed that acP bound near K11, where the substrate DHAP is seen to bind”. In addition, the “in vitro acetylation, anti-acetyllysine Western blot and MS1 Filtering” value in experiment [2] is “when incubated with acP, purified LpdA became acetylated in a dose- and time-dependent manner”; in experiment [4], “significant relative increases in acetylation were observed for K297 of RpoA, for K1065 of RpoB”.
As to `O=P(O)(O)OP(=O)(O)O` [pyrophosphate], the X-ray crystallography result in experiment [5] (source of ligand not told) is “had either NAD^+ or pyrophosphate bound in the NAD^+-binding site”.
Consider `NC(=O)c1ccc[n+]([C@@H]2O[C@H](COP(=O)(O)OP(=O)(O)OC[C@H]3O[C@@H](n4cnc5c(N)ncnc54)[C@H](O)[C@@H]3O)[C@@H](O)[C@H]2O)c1` [NAD^+], for which the X-ray crystallography result in experiment [5] was “had either NAD^+ or pyrophosphate bound in the NAD^+-binding site”.
